{"source": "ChEMBL document CHEMBL1201862", "about": "“PubChem BioAssay data set” (2004)", "assay_in_all_cases": "inhibition of tumour cell growth, NCI panel, 48 h", "key": {"[1]": {"tested_on": "U-251"}, "[2]": {"tested_on": "SN12C"}, "[3]": {"tested_on": "HL-60"}, "[4]": {"tested_on": "M14"}, "[5]": {"tested_on": "SNB-78"}, "[6]": {"tested_on": "OVCAR-3"}, "[7]": {"tested_on": "HCC 2998"}, "[8]": {"tested_on": "SR"}, "[9]": {"tested_on": "HOP-62"}, "[10]": {"tested_on": "NCI-H460"}, "[11]": {"tested_on": "NCI-H522"}, "[12]": {"tested_on": "SNB-75"}, "[13]": {"tested_on": "IGROV-1"}, "[14]": {"tested_on": "LOX IMVI"}, "[15]": {"tested_on": "UACC-257"}, "[16]": {"tested_on": "SF-539"}, "[17]": {"tested_on": "K562"}, "[18]": {"tested_on": "HOP-92"}, "[19]": {"tested_on": "SK-MEL-2"}, "[20]": {"tested_on": "CCRF-CEM"}, "[21]": {"tested_on": "TK-10"}, "[22]": {"tested_on": "SK-MEL-5"}, "[23]": {"tested_on": "UACC-62"}, "[24]": {"tested_on": "HCT-15"}, "[25]": {"tested_on": "ACHN"}, "[26]": {"tested_on": "RXF 393"}, "[27]": {"tested_on": "Malme-3M"}, "[28]": {"tested_on": "KM12"}, "[29]": {"tested_on": "A549"}, "[30]": {"tested_on": "OVCAR-5"}, "[31]": {"tested_on": "HOP-18"}, "[32]": {"tested_on": "LXFL 529"}, "[33]": {"tested_on": "DLD-1"}, "[34]": {"tested_on": "SK-MEL-28"}, "[35]": {"tested_on": "OVCAR-8"}, "[36]": {"tested_on": "786-0"}, "[37]": {"tested_on": "KM-20L2"}, "[38]": {"tested_on": "SK-OV-3"}, "[39]": {"tested_on": "NCI-H23"}, "[40]": {"tested_on": "SW-620"}, "[41]": {"tested_on": "HT-29"}, "[42]": {"tested_on": "HCT-116"}, "[43]": {"tested_on": "SF-295"}, "[44]": {"tested_on": "UO-31"}, "[45]": {"tested_on": "MOLT-4"}, "[46]": {"tested_on": "OVCAR-4"}, "[47]": {"tested_on": "EKVX"}}, "note": "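Cultured in 96-well plates, cells were exposed to test compound for 48 hours across five concentrations. GI50: concentration for 50% inhibition of growth.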 Calls of active or inactive are those of the source. Cut-off read from the data, not from the text of the source: active = GI50 up to about 1.1 µM and inactive = higher."}
{"smiles": "CN(C)CCSc1cccc(-c2cc(-c3cccc(SCCN(C)C)c3)nc(SCCN(C)C)n2)c1", "values": [{"measurement": "GI50", "setting": "[1]", "value": "1.91 µM (inactive)"}, {"measurement": "GI50", "setting": "[2]", "value": "12.1 µM (inactive)"}, {"measurement": "GI50", "setting": "[3]", "value": "1.85 µM (inactive)"}, {"measurement": "GI50", "setting": "[4]", "value": "1.62 µM (inactive)"}, {"measurement": "GI50", "setting": "[5]", "value": "2.42 µM (inactive)"}, {"measurement": "GI50", "setting": "[6]", "value": "10.2 µM (inactive)"}, {"measurement": "GI50", "setting": "[7]", "value": "2.29 µM (inactive)"}, {"measurement": "GI50", "setting": "[8]", "value": "1.82 µM (inactive)"}, {"measurement": "GI50", "setting": "[9]", "value": "16.3 µM (inactive)"}, {"measurement": "GI50", "setting": "[10]", "value": "1.85 µM (inactive)"}, {"measurement": "GI50", "setting": "[11]", "value": "1.61 µM (inactive)"}, {"measurement": "GI50", "setting": "[12]", "value": "2.95 µM (inactive)"}, {"measurement": "GI50", "setting": "[13]", "value": "3.37 µM (inactive)"}, {"measurement": "GI50", "setting": "[14]", "value": "1.64 µM (inactive)"}, {"measurement": "GI50", "setting": "[15]", "value": "1.59 µM (inactive)"}, {"measurement": "GI50", "setting": "[16]", "value": "1.77 µM (inactive)"}, {"measurement": "GI50", "setting": "[17]", "value": "1.49 µM (inactive)"}, {"measurement": "GI50", "setting": "[18]", "value": "0.551 µM (active)"}, {"measurement": "GI50", "setting": "[19]", "value": "7.96 µM (inactive)"}, {"measurement": "GI50", "setting": "[20]", "value": "1.69 µM (inactive)"}, {"measurement": "GI50", "setting": "[21]", "value": "2.88 µM (inactive)"}, {"measurement": "GI50", "setting": "[22]", "value": "1.55 µM (inactive)"}, {"measurement": "GI50", "setting": "[23]", "value": "17.5 µM (inactive)"}, {"measurement": "GI50", "setting": "[24]", "value": 2.18, "unit": "µM"}, {"measurement": "GI50", "setting": "[25]", "value": "5.77 µM (inactive)"}, {"measurement": "GI50", "setting": "[26]", "value": "1.35 µM (inactive)"}, {"measurement": "GI50", "setting": "[27]", "value": "1.87 µM (inactive)"}, {"measurement": "GI50", "setting": "[28]", "value": "1.66 µM (inactive)"}, {"measurement": "GI50", "setting": "[29]", "value": "1.71 µM (inactive)"}, {"measurement": "GI50", "setting": "[30]", "value": "6.79 µM (inactive)"}, {"measurement": "GI50", "setting": "[31]", "value": "< 0.01 µM (active)"}, {"measurement": "GI50", "setting": "[32]", "value": "2.02 µM (inactive)"}, {"measurement": "GI50", "setting": "[33]", "value": "12.9 µM (inactive)"}, {"measurement": "GI50", "setting": "[34]", "value": "1.93 µM (inactive)"}, {"measurement": "GI50", "setting": "[35]", "value": "1.42 µM (inactive)"}, {"measurement": "GI50", "setting": "[36]", "value": "7.85 µM (inactive)"}, {"measurement": "GI50", "setting": "[37]", "value": "1.71 µM (inactive)"}, {"measurement": "GI50", "setting": "[38]", "value": "30.1 µM (inactive)"}, {"measurement": "GI50", "setting": "[39]", "value": "4.49 µM (inactive)"}, {"measurement": "GI50", "setting": "[40]", "value": "1.87 µM (inactive)"}, {"measurement": "GI50", "setting": "[41]", "value": "1.55 µM (inactive)"}, {"measurement": "GI50", "setting": "[42]", "value": "1.17 µM (inactive)"}, {"measurement": "GI50", "setting": "[43]", "value": "2 µM (inactive)"}, {"measurement": "GI50", "setting": "[44]", "value": "12.8 µM (inactive)"}, {"measurement": "GI50", "setting": "[45]", "value": "1.63 µM (inactive)"}, {"measurement": "GI50", "setting": "[46]", "value": "1.67 µM (inactive)"}, {"measurement": "GI50", "setting": "[47]", "value": "2.06 µM (inactive)"}]}
